Key:
[1] = system: methicillin-sensitive S. aureus ATCC 29213; test: Resistance development test; assay type: cell-based, Staphylococcus aureus; conditions: S. aureus cultured at MBC50 concentration
Description: (§1) First, one S. aureus or E. coli colony from an agar plate was inoculated into 20 mL MHB and cultured overnight at 37° C. The bacterial suspensions were diluted to 2.5×10^6 bacteria/mL. […] After every 48 h, CFU assays were performed on these bacteria, and the MBCs were calculated. The change in MBCs over the generations was plotted.

[2] = system: E. coli ATCC 25922; test: Resistance development test; assay type: cell-based, Escherichia coli; conditions: E. coli cultured at MBC50 concentration; 312 generations tested
Description: as §1

[3] = system: E. coli ATCC 25922; test: Membrane potential change test (BacLight, DiOC2(3)); assay type: cell-based, Escherichia coli; conditions: 6.25 or 12.5 μg/ml (CCCP 5 μM)
Description: Membrane potential change was measured using a BacLight Bacterial Membrane Potential Kit (Invitrogen). The bacterial strain methicillin-sensitive S. aureus (MSSA) ATCC 29213, E. faecalis ATCC 29212, E. coli ATCC 25922 were cultured in MHB at 37° C. 50 μL of different concentrations of Se NPs, Se NP-ε-PL or pure ε-PL in PBS solution was added into each well of 96-well microplates. 50 μL MHB with 2.5×10^6 cells/mL bacteria was then added into each well. 50 μL MHB with 2.5×10^6 cells/mL bacteria was added to 50 μL PBS to act as untreated control. Carbonyl cyanide 3-chlorophenylhydrazone (CCCP) was added to untreated control at a final concentration of 5 μM to act as fully depolarized control. 3,3′-Diethyloxacarbocyanine Iodide (DiOC2(3)) was added to all wells at a final concentration of […]. […] The untreated (polarized) and CCCP-treated (fully depolarized) controls were used to determine the percentage of depolarized cells. Two independent experiments were done for this test, and two technical replicates were adopted for each independent experiment.

SMILES	generations after which resistance started to develop (rise of MBC) [1]	generations after which resistance started to develop (rise of MBC) [2]	depolarisation of cell membrane [3]
NC[C@H]1O[C@H](O[C@H]2[C@H](O)[C@@H](O[C@H]3O[C@H](CO)[C@@H](O)[C@H](N)[C@H]3O)[C@H](N)C[C@@H]2N)[C@H](O)[C@@H](O)[C@@H]1O [kanamycin]	44 generations	52 generations	
N#CC(C#N)=NNc1cccc(Cl)c1 [CCCP, Carbonyl cyanide 3-chlorophenylhydrazone]			minimal activity
